In patent US20090016989A1, “ANTIBODIES TO HUMAN SOMATOSTATIN RECEPTOR AND METHODS OF USE” (priority 2007, published 2009):

Experiments:
BON cells [1] = assay: Guava Nexin apoptosis assay (Annexin V / 7-AAD); type: cell-based, human; conditions: 6 hours after treatment with staurosporin, % of Total
Procedure: Cells were then switched to growth media without FBS and allowed to grow for another 24 hours before applying treatments. Samples were collected and counted in accordance with Guava Technologies' Viacount Flex (Cat#4500-0110) instructions. At the end of each antibody treatment, cells were dissociated from the plate using 1× trypsin-EDTA (Invitrogen Cat#2520). […] Next, phosphate buffer solution (D-PBS) (Invitrogen Cat#14190-144) (Invitrogen) was used as the exchange buffer to resuspend the cell pellet. […] Detection was achieved by using Guava PCA96 instrument and data was analysed by using Guava Nexin software module as (Cat#0500-0250). […] Following the protocol for the Guava Nexin™ assay (Guava Technologies), two different dyes were used to stain for cells undergoing apoptosis: 7-AAD stains for dead and late apoptosis cells (upper right quadrant of each graph in FIG. 10), and Annexin V stains for cells undergoing apoptosis from the early stage (lower right quadrant of each graph in FIG. 10). […] Once every 24 hours for 72 hours (FIGS. 10B, 10C and 10D), cells were collected and tested for apoptosis status using the Guava Nexin™ assay (Guava Technologies).

BON cells [2] = assay: Guava Nexin apoptosis assay (Annexin V / 7-AAD); type: cell-based, human; conditions: 6 hours after treatment with staurosporin, % of Total; remark: listed apart in the source

With CN[C@@H]1C[C@H]2O[C@@](C)([C@@H]1OC)n1c3ccccc3c3c4c(c5c6ccccc6n2c5c31)C(=O)NC4 [Staurosporine] the “Early apoptotic cells (Lower Right Quadrant)” value (BON cells [1]) was 28.7%, the “Late apoptotic cells (Upper Right Quadrant)” value (BON cells [1]) was 23.7% and the “Live, healthy cells (Lower Left Quadrant)” value (BON cells [1]) was 46.7%. The “Annexin V+” value (BON cells [2]) was 52.3% and the “Nuclear Debris (Upper Left Quadrant)” value (BON cells [2]) was 1.0%.
